Measurements taken from ChEMBL document CHEMBL3132806, “Dual mode of action of phenyl-pyrazole-phenyl (6-5-6 system)-based PPI inhibitors: alpha-helix backbone versus alpha-helix binding epitope” (Medchemcomm, 2013).

Tests used:
[1] = Kinetic solubility of the compound in PBS buffer; type: physicochemical
[2] = biological target: Tumour suppressor p53/oncoprotein Mdm2 (Homo sapiens, UniProt Q00987); test: Inhibition of 6His-tagged MDM2 (1 to 118) interaction to FITC-tagged p53 (17 to 26) (unknown origin) after 30 mins by fluorescence polarization assay; type: protein assay
Sequence of Tumour suppressor p53/oncoprotein Mdm2 (P04637 whole entry): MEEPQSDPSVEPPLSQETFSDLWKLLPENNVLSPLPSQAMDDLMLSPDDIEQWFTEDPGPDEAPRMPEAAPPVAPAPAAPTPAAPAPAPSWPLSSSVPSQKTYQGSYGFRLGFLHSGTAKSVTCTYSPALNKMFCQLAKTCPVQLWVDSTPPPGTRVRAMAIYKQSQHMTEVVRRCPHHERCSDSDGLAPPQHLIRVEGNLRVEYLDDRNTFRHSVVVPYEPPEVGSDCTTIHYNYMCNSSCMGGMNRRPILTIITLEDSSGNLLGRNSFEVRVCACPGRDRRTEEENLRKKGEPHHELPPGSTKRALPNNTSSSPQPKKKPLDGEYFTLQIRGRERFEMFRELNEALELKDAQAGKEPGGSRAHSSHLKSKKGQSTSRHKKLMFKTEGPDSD
Sequence of Tumour suppressor p53/oncoprotein Mdm2 (Q00987 whole entry): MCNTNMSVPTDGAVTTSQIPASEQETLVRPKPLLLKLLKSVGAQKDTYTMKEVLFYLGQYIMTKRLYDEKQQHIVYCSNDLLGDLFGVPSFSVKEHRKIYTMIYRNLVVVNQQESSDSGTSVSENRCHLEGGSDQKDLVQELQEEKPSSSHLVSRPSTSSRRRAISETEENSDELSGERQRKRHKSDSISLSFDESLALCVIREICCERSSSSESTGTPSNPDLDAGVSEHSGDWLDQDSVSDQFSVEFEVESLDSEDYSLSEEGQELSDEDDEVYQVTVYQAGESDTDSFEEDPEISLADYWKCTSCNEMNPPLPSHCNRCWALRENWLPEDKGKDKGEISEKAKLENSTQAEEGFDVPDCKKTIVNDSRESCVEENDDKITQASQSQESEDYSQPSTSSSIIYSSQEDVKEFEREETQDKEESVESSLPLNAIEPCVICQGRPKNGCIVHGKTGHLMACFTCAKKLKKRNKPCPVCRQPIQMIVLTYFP

Compound | Kinetic_solubility [1] | IC50 [2]
COc1ccc(CC(=O)O)cc1-c1cc(-c2ccc(F)cc2)n(Cc2ccccc2)n1 | > 0.2 Ug/ml | 595 µM
COc1cccc(-c2cc(-c3cc(C(=O)O)ccc3OCC(C)C)nn2CCc2ccccc2)c1OC | 0.056 Ug/ml | 8.22 µM
COc1ccc(CCC(=O)O)cc1-c1cc(-c2cccc(OC)c2OC)n(Cc2ccccc2)n1 | 0.169 Ug/ml | 449 µM
CCOc1ccc(CCC(=O)O)cc1-c1cc(-c2ccc(F)cc2)n(CCc2ccccc2)n1 | > 0.2 Ug/ml | 35.8 µM
COc1ccc(C(=O)O)cc1-c1cc(-c2cccc(OC)c2OC)n(CCc2ccccc2)n1 | > 0.2 Ug/ml | 186 µM
COc1cccc(-c2cc(-c3cc(CCC(=O)O)ccc3OCc3cccc(Cl)c3)nn2CCc2ccccc2)c1OC | < 0.015 Ug/ml | 34 µM
COc1ccc(CCC(=O)O)cc1-c1cc(-c2ccc(Cl)cc2)n(Cc2ccccc2)n1 | 0.019 Ug/ml | 86.6 µM
COc1cccc(-c2cc(-c3cc(CC(=O)O)ccc3OCC(C)C)nn2Cc2ccccc2)c1OC | > 0.2 Ug/ml | 120 µM
COc1ccc(CCC(=O)O)cc1-c1cc(-c2ccc(F)cc2)n(Cc2ccccc2)n1 | 0.066 Ug/ml | 17 µM
CCOc1ccc(CCC(=O)O)cc1-c1cc(-c2ccc(F)cc2)n(Cc2ccccc2)n1 | < 0.015 Ug/ml | 101 µM
COc1cccc(-c2cc(-c3cc(CCC(=O)O)ccc3OCc3cccc(Cl)c3)nn2Cc2ccccc2)c1OC | < 0.015 Ug/ml | 31.6 µM
O=C(O)c1ccc(-c2cc(-c3ccc(F)cc3)n(CCc3ccccc3)n2)cc1 | 0.096 Ug/ml | 128 µM
O=C(O)CCc1ccc(OCc2cccc(Cl)c2)c(-c2cc(-c3ccc(F)cc3)n(CCc3ccccc3)n2)c1 | < 0.015 Ug/ml | 47.8 µM
CCOc1ccccc1-c1cc(-c2ccc(C(=O)O)cc2)nn1Cc1ccccc1 | 0.117 Ug/ml | 346 µM
COc1ccc(C(=O)O)cc1-c1cc(-c2cccc(OC)c2OC)n(Cc2ccccc2)n1 | > 0.2 Ug/ml | 1020 µM
CCCOc1ccc(C(=O)O)cc1-c1cc(-c2cccc(OC)c2OC)n(Cc2ccccc2)n1 | > 0.2 Ug/ml | 79.3 µM
O=C(O)Cc1ccc(OCc2ccccc2Cl)c(-c2cc(-c3ccc(F)cc3)n(Cc3ccccc3)n2)c1 | < 0.015 Ug/ml | 130 µM
CCOc1ccc(CCC(=O)O)cc1-c1cc(-c2cccc(OC)c2OC)n(Cc2ccccc2)n1 | > 0.2 Ug/ml | 353 µM
COc1ccc(CCC(=O)O)cc1-c1cc(-c2cccc(OC)c2OC)n(CCc2ccccc2)n1 | > 0.2 Ug/ml | 436 µM
COc1ccc(CC(=O)O)cc1-c1cc(-c2cccc(OC)c2OC)n(Cc2ccccc2)n1 | > 0.2 Ug/ml | 967 µM
COc1ccc(CCC(=O)O)cc1-c1cc(-c2ccc(Cl)cc2)n(CCc2ccccc2)n1 | 0.046 Ug/ml | 38.9 µM
O=C(O)CCc1ccc(OCc2cccc(Cl)c2)c(-c2cc(-c3ccc(F)cc3)n(Cc3ccccc3)n2)c1 | < 0.015 Ug/ml | 51.9 µM
CCOc1ccc(C(=O)O)cc1-c1cc(-c2cccc(OC)c2OC)n(Cc2ccccc2)n1 | 0.138 Ug/ml | 295 µM

More lines, now with the values ahead:

Kinetic_solubility [1] | IC50 [2] | Compound
0.066 Ug/ml | 111 µM | CCOc1ccc(C(=O)O)cc1-c1cc(-c2ccccc2OCC)n(Cc2ccccc2)n1
> 0.2 Ug/ml | 232 µM | CCOc1ccccc1-c1cc(-c2cc(C(=O)O)ccc2OC)nn1CCc1ccccc1
0.138 Ug/ml | 288 µM | CCOc1ccccc1-c1cc(-c2cc(CC(=O)O)ccc2OC)nn1Cc1ccccc1
> 0.2 Ug/ml | 727 µM | COc1ccc(CC(=O)O)cc1-c1cc(-c2cccc(OC)c2OC)n(CCc2ccccc2)n1
> 0.2 Ug/ml | 258 µM | CCOc1ccccc1-c1cc(-c2cc(CCC(=O)O)ccc2OC)nn1CCc1ccccc1
< 0.015 Ug/ml | 249 µM | CCOc1ccccc1-c1cc(-c2cc(CC(=O)O)ccc2OCc2cccc(Cl)c2)nn1CCc1ccccc1
> 0.2 Ug/ml | 14 µM | CCOc1ccc(C(=O)O)cc1-c1cc(-c2cccc(OC)c2OC)n(CCc2ccccc2)n1
0.066 Ug/ml | 14.2 µM | CCCCOc1ccc(C(=O)O)cc1-c1cc(-c2cccc(OC)c2OC)n(CCc2ccccc2)n1
0.117 Ug/ml | 60.6 µM | CCCOc1ccc(CC(=O)O)cc1-c1cc(-c2cccc(OC)c2OC)n(CCc2ccccc2)n1
> 0.2 Ug/ml | 388 µM | CCOc1ccccc1-c1cc(-c2cc(CCC(=O)O)ccc2OC)nn1Cc1ccccc1
0.117 Ug/ml | 116 µM | CCCCOc1ccc(CC(=O)O)cc1-c1cc(-c2cccc(OC)c2OC)n(CCc2ccccc2)n1
0.066 Ug/ml | 72 µM | CCCOc1ccc(CC(=O)O)cc1-c1cc(-c2ccccc2OCC)n(CCc2ccccc2)n1
0.117 Ug/ml | 6.56 µM | CCCOc1ccc(C(=O)O)cc1-c1cc(-c2cccc(OC)c2OC)n(CCc2ccccc2)n1
0.015 Ug/ml | 14.2 µM | CCOc1ccccc1-c1cc(-c2cc(C(=O)O)ccc2OCC(C)C)nn1CCc1ccccc1
> 0.2 Ug/ml | 348 µM | CCOc1ccc(CC(=O)O)cc1-c1cc(-c2cccc(OC)c2OC)n(Cc2ccccc2)n1
< 0.015 Ug/ml | 54.4 µM | CCOc1ccccc1-c1cc(-c2cc(CC(=O)O)ccc2OCc2cccc(Cl)c2)nn1Cc1ccccc1
0.046 Ug/ml | 48.7 µM | CCOc1ccccc1-c1cc(-c2cc(CC(=O)O)ccc2OCC(C)C)nn1CCc1ccccc1
0.102 Ug/ml | 105 µM | CCOc1ccc(CCC(=O)O)cc1-c1cc(-c2ccccc2OCC)n(CCc2ccccc2)n1
> 0.2 Ug/ml | 118 µM | CCCCOc1ccc(CC(=O)O)cc1-c1cc(-c2cccc(OC)c2OC)n(Cc2ccccc2)n1
0.096 Ug/ml | 54.1 µM | CCCCOc1ccc(CC(=O)O)cc1-c1cc(-c2ccccc2OCC)n(CCc2ccccc2)n1
> 0.2 Ug/ml | 102 µM | CCOc1ccc(CC(=O)O)cc1-c1cc(-c2ccccc2OCC)n(CCc2ccccc2)n1
0.039 Ug/ml | 238 µM | CCOc1ccccc1-c1cc(-c2cc(C(=O)O)ccc2OC)nn1Cc1ccccc1
0.022 Ug/ml | 10.7 µM | CCOc1ccc(C(=O)O)cc1-c1cc(-c2ccccc2OCC)n(CCc2ccccc2)n1
0.056 Ug/ml | 68.3 µM | COc1cccc(-c2cc(-c3cc(CC(=O)O)ccc3OCC(C)C)nn2CCc2ccccc2)c1OC
> 0.2 Ug/ml | 329 µM | CCCOc1ccc(CC(=O)O)cc1-c1cc(-c2cccc(OC)c2OC)n(Cc2ccccc2)n1
0.032 Ug/ml | 16.8 µM | CCCCOc1ccc(C(=O)O)cc1-c1cc(-c2ccccc2OCC)n(CCc2ccccc2)n1
0.096 Ug/ml | 68.8 µM | CCCOc1ccc(C(=O)O)cc1-c1cc(-c2ccccc2OCC)n(Cc2ccccc2)n1
> 0.2 Ug/ml | 339 µM | CCOc1ccccc1-c1cc(-c2cc(CC(=O)O)ccc2OC)nn1CCc1ccccc1
> 0.2 Ug/ml | 91.2 µM | CCOc1ccccc1-c1cc(-c2ccc(C(=O)O)cc2)nn1CCc1ccccc1
